{
  "source": "paper PMC10973839",
  "about": "“CHF6297: a novel potent and selective p38 MAPK inhibitor with robust anti-inflammatory activity and suitable for inhaled pulmonary administration as dry powder” (Frontiers in Pharmacology, 2024)",
  "key": {"[1]": {"tested_on": "rat PBMCs", "test": "TNF-α release in LPS-stimulated PBMCs", "type": "cell-based", "conditions": "PBMC, LPS 10 ng/mL, 18 h", "method": "Peripheral blood mononuclear cells (PBMCs) were isolated from the blood of healthy human volunteers and Wistar rats (250–350 gr; Charles River, Calco, Italy) using a standard density gradient centrifugation technique. The citrated blood was placed onto Histopaque^TM and centrifuged. The PBMCs were then removed from the density gradient interface and washed in phosphate-buffered saline (PBS). The PBMCs were suspended in RPMI 1640 medium (without serum), aliquoted into a 96-well plate, and incubated at 37°C for 3 h in a humidified incubator. After incubation, the medium was replaced (with a medium containing 1% fetal bovine serum), and the plate was incubated at 37°C, for 1 h, in the presence of a test compound or the appropriate vehicle. LPS (10 ng/mL), or an appropriate vehicle control, was then added to the cells, and the plate was returned to the incubator for 18 h. Cell-free supernatants were removed and assayed for TNF-α levels using MSD plates on the SECTOR Imager 6000 (Meso Scale)."}, "[2]": {"tested_on": "HBSMCs", "test": "CSE-evoked IL-8 release in human bronchial smooth muscle cells", "type": "cell-based", "method": "Cigarette smoke extract (CSE) was generated as reported previously ([Moretto et al., 2012]). Briefly, aqueous CSE was obtained from the combustion of four cigarettes (Marlboro Red, 12 mg tar, 0.9 mg nicotine each) bubbled through 50 mL of the culture medium and subsequently filtered through a 0.2-μm-pore filter (Millipore, Billerica, MA). To ensure reproducibility among different CSE batches, the absorbance [optical density (OD)] measured at 320 nm was used as a measure of the “strength” of the extract. Dilutions were made with culture media to obtain the desired absorbance. The CSE was freshly prepared on the day of the experiment and immediately used after preparation. Human bronchial smooth muscle cells (HBSMCs) were seeded in DMEM with 10% FBS (50 U/mL penicillin, 0.05 mg/mL streptomycin, and 2 mM L-glutamine) in 48-well plates at a density of 10,000 cells/well, grown to ∼80%–90% confluence and incubated overnight in serum-free DMEM before treatments. All the treatments were performed in serum-free DMEM. The cells were pretreated for 30 min with either the vehicle or CHF6297 or losmapimod before stimulation with freshly prepared CSE, TNF-α, (1 ng/mL), or the vehicle for 18 h at 37°C. Human IL-8 was measured in the collected supernatants by use of a paired-antibody quantitative ELISA kit (BioSource International, Camarillo, CA)."}, "[3]": {"tested_on": "i.v. LPS-induced TNF-α in blood", "test": "Intravenous LPS-induced TNF-α release in rat blood", "type": "in vivo, rats", "conditions": "oral gavage, i.v. LPS"}, "[4]": {"tested_on": "TS-induced neutrophil influx in BALF", "test": "BALF neutrophilia induced by tobacco smoke exposure in mice", "type": "in vivo, C57BL6J female mice", "conditions": "0.3 mg/kg i.n., 4 days TS exposure", "method": "C57BL6J female mice aged 9–10 weeks (Harlan Laboratories S.r.l) in groups of 8 were exposed, via whole-body inhalation, twice daily 1 h apart, for 4 consecutive days, to the tobacco smoke (TS) (generated using “Marlboro Gold: 9 mg of tar and 0.7 mg nicotine”) of two cigarettes/exposure on days 1 and 2, three cigarettes/exposure on day 3, and four cigarettes/exposure on the last exposure day in clear polycarbonate chambers (27 cm × 16 cm × 12 cm). The smoke was introduced into the exposure chambers (21100-790 Ugo Basile, Biological Research Instruments, Comerio, Varese, Italy), with the airflow generated by using a mechanical ventilator (7025 Rodent Ventilator, Ugo Basile). Each exposure chamber was connected to a different ventilator set at a rate of 100 mL/min (frequency: 50 strokes/min; volume: 2 mL/stroke). At regular intervals (after burning two cigarettes), the exposure chambers were opened and aired. Sham and control mice were exposed to air only in the same manner for the same duration of time.\nCHF6297 (0.03 and 0.3 mg/kg) and budesonide (0.3 mg/kg), our reference compound and vehicle (0.2% Tween 80 in saline), respectively, were administered intranasally in a volume of 30 µL, 1 h before and 5 h after TS exposure under light isoflurane anesthesia.\nA BAL was performed using a volume of 0.6 mL of phosphate-buffered saline that was gently instilled and withdrawn three times using a 12-mL syringe. BALF cells were separated by centrifugation (10 min at 3,070 g), and the supernatant was removed. The resulting cell pellet was resuspended in a known volume of PBS, and the total cell numbers were calculated by counting a stained (Turk’s stain) aliquot under a microscope using a hemacytometer. The cell pellet was resuspended to approximately 10^5 cells per ml, and cytospin slides were prepared by centrifugation (8 min at 72.26 g; Shandon Cytospin; Thermo Shandon Ltd., Runcorn, Cheshire, United Kingdom). The slides were air-dried and stained using Wright–Giemsa stain, following the manufacturer’s instructions. A differential cell count was performed using light microscopy. Approximately 400 cells were counted from each slide. The cells were identified using standard morphometric techniques."}, "[5]": {"tested_on": "IAV-induced airway neutrophilia in HDM-challenged mice", "test": "Influenza virus A (H3N2)-induced exacerbation in HDM-sensitized mice", "type": "in vivo, Balb/c mice", "conditions": "100 μg/kg twice daily for 3 days"}},
  "data": [
    {"smiles": "Cc1c(F)cc(C(=O)NC2CC2)cc1-c1ccc(C(=O)NCC(C)(C)C)cn1", "note": "[losmapimod, reference compound]", "values": [
      {"measurement": "IC50", "setting": "[1]", "result": 11.9, "unit": "nM"},
      {"measurement": "maximum inhibition of IL-8", "setting": "[2]; CSE-evoked", "result": 100, "unit": "%"},
      {"measurement": "IC50", "setting": "[2]; Homo sapiens, 18 h", "result": 9.13, "unit": "nM"},
      {"measurement": "effect on TNF-α levels in blood", "setting": "[3]", "result": "marked reduction in TNF-α levels"}
    ]},
    {"smiles": "CCCC1O[C@@H]2C[C@H]3[C@@H]4CCC5=CC(=O)C=C[C@]5(C)[C@H]4[C@@H](O)C[C@]3(C)[C@]2(C(=O)CO)O1", "note": "(stereo partly drawn) [budesonide, reference compound]", "values": [
      {"measurement": "neutrophils in BALF", "setting": "[4]", "result": "0.5 ± 0.1 × 10^5 cells/mL"},
      {"measurement": "neutrophils in BAL fluid", "setting": "[5]", "result": "2.08 ± 0.23 × 10^5 cells/mL"}
    ]}
  ]
}
